Data on two compounds can be found in patent US9469652B2, “ERK inhibitors” (Eli Lilly and Company, priority 2014, dated 2016).

In assay [1] the test system is human colorectal cancer cells HCT116. The assay is described as follows: In vivo combination study, HCT116 KRAS mutant colorectal cancer xenograft model. The settings on record: oral, 28 days, single agent. As to the method:
(§1) More specifically, the compound of Example 1 is tested in combination with either the pan-RAF inhibitor compound or the CDK4/6 inhibitor compound in HCT116, a KRAS mutant colorectal cancer xenograft model. Also, the compound of Example 1 is tested in combination with either the CDK4/6 inhibitor compound or DC101 in NCI-H441, A549, and NCI-H2122, KRAS mutant non-small cell lung cancer (NSCLC) xenograft models.
The HCT116 combination efficacy study is done in athymic nude rats. Expand human colorectal cancer cells HCT116 (ATCC, #CCL-247) in culture, harvest and inject 5×10e^6 cells in 200 μL of 1:1 HBSS+matrigel solution subcutaneously on to the rear right flank of female NIH nude rats (120-145 gm, Taconic Farms). Measure tumor growth and body weight twice per week beginning the seventh day after the implantation. When average tumor sizes reach 200-300 mm^3, randomize animals and group into groups of five to seven animals. Prepare test compound in an appropriate vehicle (see below) and administer by oral gavage for 21 to 28 days. Tumor response is determined by tumor volume measurement performed twice a week during the course of treatment. Vehicle used in this study is 1% HEC (hydroxy ethyl cellulose)/0.25% Tween® 80/0.05% Antifoam. The compound of Example 1 and the pan-RAF inhibitor compound are formulated in 1% HEC/0.25% Tween® 80/0.05% Antifoam. The CDK4/6 inhibitor compound is formulated in 1% HEC in 25 mM Sodium phosphate buffer, pH 2.

Assay [2] has as its system human non-small cell lung cancer cells A549 (KRAS_G12S). Put plainly: In vivo combination study, A549 NSCLC xenograft model. Particulars: single agent. Details: species or system female CB-17 SCID mice. As to the method: as §1
(§2) Combination efficacy is also tested in three KRAS mutant NSCLC xenograft models including A549 (KRAS_G12S) in SCID mice as well as NCI-H441 (KRAS_G12V) and NCI-H2122 (KRAS_G12C) in athymic nude mice. Expand human non-small cell lung cancer cells NCI-H441 (ATCC, #CRL-5807) and NCI-H2122 (ATCC, #CRL-5985) in culture, harvest and inject 5×10e^6 cells in 200 μL of 1:1 HBSS+matrigel solution subcutaneously on to the rear right flank of female athymic nude mice (20-22 gm, Harlan Laboratories). Expand human non-small cell lung cancer cells A549 (ATCC, #CC1-185) in culture, harvest and inject 5×10e^6 cells in 200 μL of 1:1 HBSS+matrigel solution subcutaneously on to the rear right flank of female CB-17 SCID mice (18-20 gm, Taconic Farms). For all cell lines, measure tumor growth and body weight twice per week beginning the seventh day after the implantation. When average tumor sizes reach 200-300 mm^3, randomize animals and group into groups of five to seven animals. Prepare test compound in an appropriate vehicle (see below) and administer by oral gavage (compound of Example 1 and the CDK4/6 inhibitor compound) or intraperitoneally (DC101) for 21 to 28 days. Tumor response is determined by tumor volume measurement performed twice a week during the course of treatment. Vehicle used in these studies is 1% HEC/0.25% Tween® 80/0.05% Antifoam. The compound of Example 1 is formulated in 1% HEC/0.25% Tween® 80/0.05% Antifoam and the CDK4/6 inhibitor compound is formulated in 1% HEC in 25 mM sodium phosphate buffer, pH 2. […] In the same NCI-H441 xenograft model, DC101 in phosphate buffer is also administered intraperitoneally twice per week (BIW) as a single agent or in combination with the compound of Example 1, 50 mpk, QD for 28 days.

For assay [3], the system named is human non-small cell lung cancer cells NCI-H2122 (KRAS_G12C). The assay is described as follows: In vivo combination study, NCI-H2122 NSCLC xenograft model. Details: species or system female athymic nude mice. Particulars: single agent. As to the method:
as §1, §2

Assay [4] deals with human non-small cell lung cancer cells NCI-H441 (KRAS_G12V). Put plainly: In vivo combination study, NCI-H441 NSCLC xenograft model. The settings on record: single agent. As to the method:
as §1, §2

Turning to `CNc1ncc2cc(-c3cc(NC(=O)NCCC(C)(C)C)c(F)cc3C)c(C)nc2n1` [pan-RAF inhibitor, 1-(3,3-dimethylbutyl)-3-(2-fluoro-4-methyl-5-(7-methyl-2-(methylamino)pyrido[2,3-d]pyrimidin-6-yl)phenyl)urea], in assay [1] (10 mg/kg BID), the “Delta T/C %” value is given as 71% and the TGI % is recorded as 29%. For the same compound, in assay [1] (20 mg/kg BID), the “Delta T/C %” value turned out to be 32% and the TGI % came out at 68%.
As for `CCN1CCN(Cc2ccc(Nc3ncc(F)c(-c4cc(F)c5nc(C)n(C(C)C)c5c4)n3)nc2)CC1` [CDK4/6 inhibitor, [5-(4-ethyl-piperazin-1-ylmethyl)-pyridin-2-yl]-[5-fluoro-4-(7-fluoro-3-isopropyl-2-methyl-3H-benzoimidazol-5-yl)-pyrimidin-2-yl]-amine, reference compound], the “Delta T/C %” value in assay [2] (50 mg/kg QD, oral, 28 days) is 49%; in assay [3] (50 mg/kg QD, oral, 28 days) it was 47%; in assay [1] (20 mg/kg QD) it was 24%; in assay [4] (50 mg/kg QD, oral, 28 days), 19%. In addition, the tumor growth inhibition in assay [2] (50 mpk) was found to be 51%; in assay [3] (50 mpk), 53%; in assay [4] (50 mpk) it was 81%. Moreover, the TGI % in assay [1] (20 mg/kg QD) was 76%.
